# From PubChem BioAssay (NCI)
# Several values for one entry are separate records, joined by “and”; a condition that tells them apart may be missing. Identical values can stand only once.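 Each compound was tested at five concentrations against cells in 96-well plates for 48 hours. GI50: concentration for 50% inhibition of growth. TGI: concentration producing complete growth inhibition.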
# Tests used:
# Test in all cases: DTP human tumour cell line panel, 48 h
# HOP-92 NSCLC = test system: HOP-92 NSCLC
# UACC-62 melanoma = test system: UACC-62 melanoma
# HCT-116 colon = test system: HCT-116 colon
# HL-60(TB) leukemia = test system: HL-60(TB) leukemia
# MALME-3M melanoma = test system: MALME-3M melanoma
# NCI-H522 lung = test system: NCI-H522 lung
# SN12C renal = test system: SN12C renal
# SR leukemia = test system: SR leukemia
# SF-268 CNS = test system: SF-268 CNS
# BT-549 breast = test system: BT-549 breast
# SNB-75 CNS = test system: SNB-75 CNS
SMILES,TGI (HOP-92 NSCLC),TGI (UACC-62 melanoma),TGI (HCT-116 colon),TGI (HL-60(TB) leukemia),TGI (MALME-3M melanoma),TGI (NCI-H522 lung),TGI (SN12C renal),TGI (SR leukemia),TGI (SF-268 CNS),TGI (BT-549 breast),TGI (SNB-75 CNS),GI50 (HOP-92 NSCLC),GI50 (SNB-75 CNS),GI50 (UACC-62 melanoma),GI50 (HL-60(TB) leukemia),GI50 (MALME-3M melanoma),GI50 (NCI-H522 lung),GI50 (SN12C renal),GI50 (SR leukemia),GI50 (SF-268 CNS)
N#Cc1c(N2CCCC2)nsc1Nc1ccc(F)cc1,> 100 µM,> 100 µM,> 100 µM,> 100 µM,> 100 µM,> 100 µM,> 100 µM,> 100 µM,> 100 µM,–,–,–,–,–,–,–,–,–,–,–
CC1=CC(=O)/C(=C/n2c(=S)[nH]c3cc(C)ccc32)C(=O)O1,> 100 µM,> 100 µM,> 100 µM,> 100 µM,–,> 100 µM,> 100 µM,–,> 100 µM,> 100 µM,> 100 µM,–,–,–,–,–,–,–,–,–
COc1ccc(CCCN2c3ccccc3Sc3ccccc32)cc1,> 100 µM,> 100 µM,> 100 µM,> 100 µM,> 100 µM,> 100 µM,> 100 µM,–,> 100 µM,–,> 100 µM,–,–,–,–,–,–,–,–,–
Cn1c(COC(=O)NC2CCCCC2)c(COC(=O)NC2CCCCC2)c2ccc3cc(C=O)ccc3c21,> 100 µM,> 100 µM,> 100 µM,> 100 µM,> 100 µM,–,> 100 µM,–,> 100 µM,> 100 µM,60.8 µM,–,–,–,–,–,–,–,–,–
CN1C=COC1N=C1CCCCC1 (stereo not given),> 100 µM,> 100 µM,> 100 µM,> 100 µM,> 100 µM,> 100 µM,> 100 µM,> 100 µM,> 100 µM,–,> 100 µM,–,–,–,–,–,–,–,–,–
COc1cc(C(O)C(=O)c2cnc3cc([N+](=O)[O-])ccc3n2)ccc1O (stereo not given),–,> 100 µM,> 100 µM,> 100 µM,> 100 µM,–,> 100 µM,> 100 µM,–,–,> 100 µM,–,–,–,–,–,–,–,–,–
Cc1ccc2c(=O)cc(Cc3csc4ccccc34)[nH]c2n1,–,> 100 µM,> 100 µM,–,62.1 µM,53.3 µM,> 100 µM,–,> 100 µM,66.4 µM,79.6 µM,–,–,–,–,–,–,–,–,–
O=C(CSCC(=O)N/N=C\c1ccccc1F)N/N=C\c1ccccc1F,> 100 µM,> 100 µM,> 100 µM,> 100 µM,> 100 µM,> 100 µM,> 100 µM,–,> 100 µM,–,> 100 µM,–,–,–,–,–,–,–,–,–
COc1cc(/C(=C2/O[C@@H]([C@H]3COC(C)(C)O3)[C@H]3OC(C)(C)O[C@@H]23)c2ccc3c(c2)OCO3)cc(OC)c1OC,> 25 µM,> 25 µM,–,> 25 µM,> 25 µM,> 25 µM,> 25 µM,> 25 µM,> 25 µM,–,> 25 µM,> 25 µM,7.13 µM,> 25 µM,> 25 µM,> 25 µM,> 25 µM,18.8 µM,> 25 µM,> 25 µM
O=C(NN1C(=O)C(Cl)C1c1ccccc1Cl)c1ccccc1O (stereo not given),–,> 100 µM,> 100 µM,> 100 µM,> 100 µM,> 100 µM,> 100 µM,–,> 100 µM,–,> 100 µM,–,–,–,–,–,–,–,–,–
O=C(Nc1ccc(Sc2ccc(N=Nc3c(O)c(S(=O)(=O)O)cc4cc(S(=O)(=O)O)ccc34)cc2)cc1)c1ccc(N=Nc2c(O)c(S(=O)(=O)O)cc3cc(S(=O)(=O)O)ccc23)cc1,92.4 µM,62 µM,> 100 µM,37.4 µM,53.5 µM,35.4 µM,> 100 µM,54 µM,> 100 µM,–,> 100 µM,–,–,–,–,–,–,–,–,–
C[N+]1([O-])[C@H]2CC(OC(=O)[C@H](CO)c3ccccc3)C[C@H]1[C@H]1O[C@H]12 (stereo not given in full),–,> 100 µM,> 100 µM,–,> 100 µM,> 100 µM,> 100 µM,> 100 µM,–,> 100 µM,> 100 µM,–,–,–,–,–,–,–,–,–
Cn1nc2ccc3nccc(NCCNCCO)c3c2n1,> 100 µM,> 100 µM,89.4 µM,> 100 µM,> 100 µM,> 100 µM,> 100 µM,> 100 µM,> 100 µM,–,> 100 µM,–,–,–,–,–,–,–,–,–
COc1cc([C@@H]2c3cc4c(cc3[C@@H](c3c(O)cc(O)c5c3O[C@H](c3ccc(O)c(O)c3)[C@H](OC(=O)c3cc(O)c(O)c(O)c3)C5)[C@H]3COC(=O)[C@H]23)OCO4)cc(OC)c1O,> 100 µM,> 100 µM,> 100 µM,56.3 µM,> 100 µM,> 100 µM,> 100 µM,–,> 100 µM,> 100 µM,–,–,–,–,–,–,–,–,–,–
COc1cc2c(c(OC)c1OC)-c1ccc(SC)c(=O)cc1[C@@H](NCc1cccc([N+](=O)[O-])c1)CC2,> 100 µM,17.8 µM,< 0.01 µM,> 100 µM,> 100 µM,–,> 100 µM,> 100 µM,28 µM,–,> 100 µM,–,–,–,–,–,–,–,–,–
CS(=O)(=O)OCC1CCCCCCCCCCC12SCCCS2 (stereo not given),> 100 µM,> 100 µM,> 100 µM,> 100 µM,> 100 µM,> 100 µM,> 100 µM,> 100 µM,> 100 µM,–,–,–,–,–,–,–,–,–,–,–
O=NN1C(c2ccccc2)CCCC1c1ccccc1 (stereo not given),> 96.1 µM,> 100 µM,> 100 µM,> 75.2 µM,> 100 µM,> 81.2 µM,> 100 µM,–,> 100 µM,–,> 77.6 µM,–,–,–,–,–,–,–,–,–
CCOC1NC(/N=C/c2ccc(OC)cc2)=C(C#N)C1C#N (stereo not given),–,> 100 µM,> 100 µM,> 100 µM,> 100 µM,47.8 µM,> 100 µM,> 100 µM,> 100 µM,73.5 µM,–,–,–,–,–,–,–,–,–,–
CC1=NN(C(=O)Cc2ccccc2)C(=O)/C1=C\c1ccccc1O,> 100 µM,> 100 µM,> 100 µM,> 100 µM,> 100 µM,> 100 µM,> 100 µM,–,> 100 µM,–,–,–,–,–,–,–,–,–,–,–
COc1cc2c(c(OC)c1OC)-c1ccc(SC)c(=O)cc1[C@@H](NC(=O)c1ccc([N+](=O)[O-])cc1)CC2,23.2 µM,25 µM and > 100 µM,7.28 µM and 11.7 µM,0.302 µM,25 µM and > 100 µM,–,25 µM and > 100 µM,25 µM and > 100 µM,25 µM and > 100 µM,–,–,–,< 0.0025 µM,–,–,–,–,–,–,–
O=C(c1ccccc1O)c1cc(-c2ncc3c(=O)c4ccccc4oc3n2)c(-c2ccccc2O)[nH]c1=O,52 µM,51.4 µM,47.4 µM,53.2 µM,74.4 µM,61.5 µM,63.7 µM,–,> 75.9 µM,–,> 100 µM,–,–,–,–,–,–,–,–,–
